This is an account of results in ChEMBL document CHEMBL4402510, “Caprazamycins: Promising lead structures acting on a novel antibacterial target MraY” (Eur J Med Chem, 2019).

Assay [1] has as its system Staphylococcus aureus. Put plainly: Antibacterial activity against methicillin resistant Staphylococcus aureus. Type of assay: functional, organism-based.
Assay [2] concerns the target T1, Phospho-N-acetylmuramoyl-pentapeptide-transferase (Aquifex aeolicus (strain VF5), UniProt O66465).
T1 sequence (O66465 whole entry): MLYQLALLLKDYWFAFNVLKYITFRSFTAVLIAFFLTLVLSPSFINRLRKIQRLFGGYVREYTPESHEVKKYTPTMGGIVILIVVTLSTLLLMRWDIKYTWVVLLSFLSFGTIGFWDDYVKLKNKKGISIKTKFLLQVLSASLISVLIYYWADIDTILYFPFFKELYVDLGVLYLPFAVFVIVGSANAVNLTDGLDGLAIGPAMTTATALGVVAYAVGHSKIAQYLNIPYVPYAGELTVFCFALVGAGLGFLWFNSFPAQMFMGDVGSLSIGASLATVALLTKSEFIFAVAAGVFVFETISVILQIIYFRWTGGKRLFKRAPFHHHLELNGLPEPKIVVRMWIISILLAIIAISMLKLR
Nature of the assay: Inhibition of MraY in Aquifex aeolicus.

Assay [3] relates to Staphylococcus aureus. Nature of the assay: Antibacterial activity against methicillin susceptible Staphylococcus aureus after 20 hrs by NCCLS-based two-fold broth dilution method. It counts as functional. Particulars: read-out: MIC.
Assay [4] concerns Haemophilus influenzae. Put plainly: Antibacterial activity against Haemophilus influenzae after 20 hrs by NCCLS-based two-fold broth dilution method. Type of assay: functional. On the technique in general: Broth dilution looks for growth in wells or tubes with falling amounts of substance.
For assay [5], the system named is Enterococcus faecium. Put plainly: Antibacterial activity against Enterococcus faecium ATCC 19434. Type of assay: functional.
Assay [6] relates to Staphylococcus aureus. Put plainly: Antibacterial activity against methicillin resistant Staphylococcus aureus SR3637. It counts as functional.
The test system of assay [7] is Staphylococcus aureus. Nature of the assay: Antibacterial activity against methicillin susceptible Staphylococcus aureus ATCC 29213. Type of assay: functional.
Assay [8] relates to Enterococcus faecium. Put plainly: Antibacterial activity against t Enterococcus faecium after 20 hrs by NCCLS-based two-fold broth dilution method. It counts as functional.
The test system of assay [9] is Enterococcus faecalis. Put plainly: Antibacterial activity against Enterococcus faecalis ATCC 29212. It counts as functional.
For assay [10], the system named is Pseudomonas aeruginosa. Put plainly: Antibacterial activity against Pseudomonas aeruginosa YY165. It counts as functional.
Assay [11] concerns Enterococcus faecalis. Nature of the assay: Antibacterial activity against Enterococcus faecalis SR7914 (VRE). It counts as functional.
The subject of assay [12] is Enterococcus faecalis. Nature of the assay: Antibacterial activity against t Enterococcus faecalis after 20 hrs by NCCLS-based two-fold broth dilution method. Particulars: read-out: MIC. It counts as functional.
For assay [13], the system named is Enterococcus faecium. Put plainly: Antibacterial activity against Enterococcus faecium SR7917 (VRE). It counts as functional.
Assay [14] has as its system Enterococcus faecalis. Put plainly: Antibacterial activity against t Enterococcus faecalis VRE after 20 hrs by NCCLS-based two-fold broth dilution method. It counts as functional. Particulars: read-out: MIC.
Assay [15] relates to Haemophilus influenzae. Put plainly: Antibacterial activity against Haemophilus influenzae ATCC 10211. Type of assay: functional.
For assay [16], the system named is Pseudomonas aeruginosa. Nature of the assay: Antibacterial activity against Pseudomonas aeruginosa after 20 hrs by NCCLS-based two-fold broth dilution method. It counts as functional.
Assay [17] deals with Staphylococcus aureus. Put plainly: Antibacterial activity against methicillin resistant Staphylococcus aureus after 20 hrs by NCCLS-based two-fold broth dilution method. Type of assay: functional. To be noted: read-out: MIC.
In a further assay the test system is Streptococcus pneumoniae. Put plainly: Antibacterial activity against Streptococcus pneumoniae after 20 hrs by NCCLS-based two-fold broth dilution method. Type of assay: functional.
For assay [18], the system named is Mycolicibacterium smegmatis. Put plainly: Antibacterial activity against Mycobacterium smegmatis after 20 hrs by NCCLS-based two-fold broth dilution method. It counts as functional.
Assay [19] relates to Staphylococcus aureus. Put plainly: Antibacterial activity against multi drug resistance Staphylococcus aureus after 20 hrs by NCCLS-based two-fold broth dilution method. It counts as functional.
The subject of assay [20] is Staphylococcus aureus. Put plainly: Antibacterial activity against Staphylococcus aureus after 20 hrs by NCCLS-based two-fold broth dilution method. It counts as functional.
Assay [21] has as its target Phospho-N-acetylmuramoyl-pentapeptide-transferase (Escherichia coli, UniProt E2QF15). Put plainly: Inhibition of MraY in Escherichia coli.

Values after ≈ are worked out from the molar mass of the structure shown.

Chain of Phospho-N-acetylmuramoyl-pentapeptide-transferase (Escherichia coli, UniProt E2QF15) (E2QF15 whole entry): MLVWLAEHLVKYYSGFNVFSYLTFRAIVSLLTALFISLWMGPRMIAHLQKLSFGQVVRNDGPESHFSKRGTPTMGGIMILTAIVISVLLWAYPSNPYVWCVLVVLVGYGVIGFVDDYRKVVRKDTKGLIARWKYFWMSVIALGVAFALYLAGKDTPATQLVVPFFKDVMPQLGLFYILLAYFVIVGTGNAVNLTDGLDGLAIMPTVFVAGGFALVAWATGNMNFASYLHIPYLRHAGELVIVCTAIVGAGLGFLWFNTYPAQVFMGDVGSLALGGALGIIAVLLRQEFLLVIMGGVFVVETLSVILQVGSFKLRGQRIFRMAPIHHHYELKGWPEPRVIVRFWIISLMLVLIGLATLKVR

For `NC[C@H]1O[C@@H](O[C@H]([C@H]2O[C@@H](n3ccc(=O)[nH]c3=O)[C@H](O)[C@@H]2O)n2cc(CCCCCCCCCCOc3ccc(C(=O)c4ccccc4)cc3)nn2)[C@H](O)[C@@H]1O`, in the assay with Staphylococcus aureus [1], the MIC came to 8 µg/mL (≈ 10.3 µM). In assay [2], the IC50 (commonly the point on the concentration scale where inhibition reaches its midpoint) came out at 25 µM.
Take `CCCCCCCCC(CCCCCCCC)C(=O)N[C@@H]1CCN[C@@H]([C@H](O[C@@H]2O[C@H](CN)[C@@H](O)[C@H]2O)[C@H]2O[C@@H](n3ccc(=O)[nH]c3=O)[C@H](O)[C@@H]2O)C1`: the MIC turned out to be 4 µg/mL (≈ 5.41 µM) with Staphylococcus aureus [3]; 16 µg/mL (≈ 21.6 µM) in the assay with Haemophilus influenzae [4]; 8 µg/mL (≈ 10.8 µM) with Enterococcus faecium [5]; 8 µg/mL (≈ 10.8 µM) against Staphylococcus aureus [6]; 4 µg/mL (≈ 5.41 µM) with Staphylococcus aureus [7]; 8 µg/mL (≈ 10.8 µM) against Enterococcus faecium [8]. In addition, the MIC against Enterococcus faecalis [9] stood at 4 µg/mL (≈ 5.41 µM); in the assay on Pseudomonas aeruginosa [10], 16 µg/mL (≈ 21.6 µM); with Enterococcus faecalis [11] it was 4 µg/mL (≈ 5.41 µM); in the assay with Enterococcus faecalis [12], 4 µg/mL (≈ 5.41 µM); with Enterococcus faecium [13], 8 µg/mL (≈ 10.8 µM); in the assay with Enterococcus faecalis [14] it was 4 µg/mL (≈ 5.41 µM). Moreover, the MIC was determined as 32 µg/mL (≈ 43.2 µM) against Haemophilus influenzae [15], 32 µg/mL (≈ 43.2 µM) against Pseudomonas aeruginosa [16], 8 µg/mL (≈ 10.8 µM) in the assay on Staphylococcus aureus [17] and 16 µg/mL (≈ 21.6 µM) against Streptococcus pneumoniae.
For the compound `CCCCCCCCCCCCCCCC(=O)O[C@H]1CN[C@@H]([C@H](O[C@@H]2O[C@H](CN)[C@@H](O)[C@H]2O)[C@H]2O[C@@H](n3ccc(=O)[nH]c3=O)[C@H](O)[C@@H]2O)C(=O)N(C)[C@@H]1C(=O)O` [DESMETHYLPALMITOYLCAPRAZOL], the MIC was 25 µg/mL (≈ 31.3 µM) in assay [18]; 3.13 µg/mL (≈ 3.91 µM) with Staphylococcus aureus [19]; 12.5 µg/mL (≈ 15.6 µM) in the assay with Enterococcus faecalis [14]; 6.25 to 12.5 µg/mL (≈ 7.81 to 15.6 µM) with Staphylococcus aureus [17]; 1.56 µg/mL (≈ 1.95 µM) against Staphylococcus aureus [20].
In assay [21], `NC[C@H]1O[C@@H](OC[C@H]2O[C@@H](n3ccc(=O)[nH]c3=O)[C@H](O)[C@@H]2O)[C@H](O)[C@@H]1O` showed an IC50 of 50 µM.
With `NC[C@H]1O[C@@H](O[C@@H](CO)[C@H]2O[C@@H](n3ccc(=O)[nH]c3=O)[C@H](O)[C@@H]2O)[C@H](O)[C@@H]1O`, the concentration for half-maximal inhibition (IC50) in [21] came out at 5 µM.
